Measured values published in patent US10251392B2, “Antimicrobial devices and compositions” (Avent, Inc., priority 2004, dated 2019).

Test: Light stability (discoloration by light exposure)
Type: physicochemical
Conditions: ambient / room light
Experimental: The term “light stable” in the present context is meant to indicate either of two conditions; (i) no visible change in the color of the compositions of patient and wound care products after 24 hour exposure to light conditions typically encountered indoors in hospital, offices, or home that are normally used to aid visibility.

[Ag+].c1ccc2[n-]cnc2c1 [silver benzimidazole complex]
light sensitivity of the solid powder: remained unchanged
